Assay results: patent US7932270B2 (Cytokinetics, Inc., priority 2006, dated 2011)

Target: T1, chicken gizzard smooth muscle myosin subfragment-1 chemically crosslinked to cardiac or skeletal actin (Gallus gallus, UniProt P10587)
T1 construct: chicken gizzard smooth muscle myosin subfragment-1; from tissue; host or cells: chicken gizzard
Assay: Smooth muscle myosin ATPase dose response assay (pyruvate kinase/horseradish peroxidase/pyruvate oxidase-coupled, amplex red fluorescence)
Format: biochemical
Conditions: read-out: IC50 Arithmetic Mean
Method in brief: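 Readout is amplex red signal from coupled ATPase of actin-crosslinked gizzard myosin S1 (0.15 mM ATP, 12 mM K-PIPES, pH 7.00). IC50 is the half-maximal activity point of a four-parameter Hill fit.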

T1 sequence (P02607 2-151): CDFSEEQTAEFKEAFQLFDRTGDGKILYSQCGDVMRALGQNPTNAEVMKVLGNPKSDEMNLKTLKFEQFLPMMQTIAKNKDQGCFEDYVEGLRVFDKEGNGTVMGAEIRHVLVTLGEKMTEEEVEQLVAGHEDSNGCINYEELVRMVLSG
T1 sequence (P10587 84-789): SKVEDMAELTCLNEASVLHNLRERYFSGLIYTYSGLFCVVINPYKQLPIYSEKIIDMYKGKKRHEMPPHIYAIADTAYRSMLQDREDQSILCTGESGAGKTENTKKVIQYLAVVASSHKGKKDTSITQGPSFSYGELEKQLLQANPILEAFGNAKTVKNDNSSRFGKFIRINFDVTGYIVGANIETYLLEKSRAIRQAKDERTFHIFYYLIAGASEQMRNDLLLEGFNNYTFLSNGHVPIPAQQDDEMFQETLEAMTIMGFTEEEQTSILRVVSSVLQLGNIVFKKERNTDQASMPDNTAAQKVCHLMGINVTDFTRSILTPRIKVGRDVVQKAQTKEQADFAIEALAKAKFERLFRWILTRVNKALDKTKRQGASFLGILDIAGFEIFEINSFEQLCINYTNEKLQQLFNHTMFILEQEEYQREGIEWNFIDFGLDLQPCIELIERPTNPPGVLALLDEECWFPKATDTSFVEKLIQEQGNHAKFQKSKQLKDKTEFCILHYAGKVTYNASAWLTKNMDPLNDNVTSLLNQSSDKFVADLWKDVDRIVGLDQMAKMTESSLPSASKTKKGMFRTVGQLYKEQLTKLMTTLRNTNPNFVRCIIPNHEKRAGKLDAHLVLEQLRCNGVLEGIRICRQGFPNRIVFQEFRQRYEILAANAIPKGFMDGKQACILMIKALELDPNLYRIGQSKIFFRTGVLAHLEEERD

| Structure (SMILES) | IC50 [nM] |
| --- | --- |
| N#Cc1ccccc1-c1ccc(C(=O)NCc2ccn(CCN)n2)c(NCCc2cccc(F)c2)n1 [N-{[1-(2-aminoethyl)pyrazol-3-yl]methyl}(6-(2-cyanophenyl)-2-{[2-(3-fluorophenyl)ethyl]amino}(3-pyridyl))carboxamide] | 296 |
| Cn1cc(-c2ccc(C(=O)NCc3ccnn3CCN)c(NCCc3cccc(F)c3)n2)cn1 [N-{[1-(2-aminoethyl)pyrazol-5-yl]methyl}(2-{[2-(3-fluorophenyl)ethyl]amino}-6-(1-methylpyrazol-4-yl)(3-pyridyl))carboxamide] | 313 |
| NCCn1nccc1CNC(=O)c1ccc(-c2cc[nH]n2)nc1NCCc1cccc(F)c1 [N-{[1-(2-aminoethyl)pyrazol-5-yl]methyl}(2-{[2-(3-fluorophenyl)ethyl]amino}-6-pyrazol-3-yl(3-pyridyl))carboxamide] | 634 |
| N#Cc1ccccc1-c1ccc(C(=O)NCc2ccnn2CCN)c(NCCc2cccc(F)c2)n1 [N-{[1-(2-aminoethyl)pyrazol-5-yl]methyl}(6-(2-cyanophenyl)-2-{[2-(3-fluorophenyl)ethyl]amino}(3-pyridyl))carboxamide] | 32 |
| N#Cc1ccccc1-c1ccc(C(=O)NCC2CCCN2CCN)c(NCCc2cccc(F)c2)n1 (stereo not shown) [N-{[1-(2-aminoethyl)pyrrolidin-2-yl]methyl}(6-(2-cyanophenyl)-2-{[2-(3-fluorophenyl)ethyl]amino}(3-pyridyl))carboxamide] | 758 |
| N#Cc1ccccc1-c1ccc(C(=O)NCC2CCN(C(=O)CCN)CC2)c(NCCc2cccc(F)c2)n1 [N-{[1-(3-aminopropanoyl)(4-piperidyl)]methyl}(6-(2-cyanophenyl)-2-{[2-(3-fluorophenyl)ethyl]amino}(3-pyridyl))carboxamide] | 3870 |
| N#Cc1ccccc1-c1ccc(C(=O)NCC2CCCCCN2C(=O)CCN)c(NCCc2cccc(F)c2)n1 (stereo not shown) [N-{[1-(3-aminopropanoyl)azaperhydroepin-2-yl]methyl}(6-(2-cyanophenyl)-2-{[2-(3-fluorophenyl)ethyl]amino}(3-pyridyl))carboxamide] | 256 |
| N#Cc1ccccc1-c1ccc(C(=O)NCC2CCN(C(=O)CCN)C2)c(NCCc2cccc(F)c2)n1 (stereo not shown) [N-{[1-(3-aminopropanoyl)pyrrolidin-3-yl]methyl}(6-(2-cyanophenyl)-2-{[2-(3-fluorophenyl)ethyl]amino}(3-pyridyl))carboxamide] | 270 |
| Cn1cc(-c2ccc(C(=O)NCC3CCN(CCCN)C3=O)c(NCCc3cccc(F)c3)n2)cn1 (stereo not shown) [N-{[1-(3-aminopropyl)-2-oxopyrrolidin-3-yl]methyl}(2-{[2-(3-fluorophenyl)ethyl]amino}-6-(1-methylpyrazol-4-yl)(3-pyridyl))carboxamide] | 5500 |
| NCCCN1CCC(CNC(=O)c2ccc(-c3cn[nH]c3)nc2NCCc2cccc(F)c2)C1=O (stereo not shown) [N-{[1-(3-aminopropyl)-2-oxopyrrolidin-3-yl]methyl}(2-{[2-(3-fluorophenyl)ethyl]amino}-6-pyrazol-4-yl(3-pyridyl))carboxamide] | 3130 |
| N#Cc1ccccc1-c1ccc(C(=O)NCC2CCN(CCCN)C2=O)c(NCCc2cccc(F)c2)n1 (stereo not shown) [N-{[1-(3-aminopropyl)-2-oxopyrrolidin-3-yl]methyl}(6-(2-cyanophenyl)-2-{[2-(3-fluorophenyl)ethyl]amino}(3-pyridyl))carboxamide] | 382 |
| N#Cc1ccccc1-c1ccc(C(=O)NCC2CCCC(=O)N2CCCN)c(NCCc2cccc(F)c2)n1 (stereo not shown) [N-{[1-(3-aminopropyl)-6-oxo(2-piperidyl)]methyl}(6-(2-cyanophenyl)-2-{[2-(3-fluorophenyl)ethyl]amino}(3-pyridyl))carboxamide] | 25 |
| N#Cc1ccccc1-c1ccc(C(=O)NCC2CCCCC(=O)N2CCCN)c(NCCc2cccc(F)c2)n1 (stereo not shown) [N-{[1-(3-aminopropyl)-7-oxoazaperhydroepin-2-yl]methyl}(6-(2-cyanophenyl)-2-{[2-(3-fluorophenyl)ethyl]amino}(3-pyridyl))carboxamide] | 273 |
| Cn1cc(-c2ccc(C(=O)NCc3ccn(CCCN)n3)c(NCCc3cccc(F)c3)n2)cn1 [N-{[1-(3-aminopropyl)pyrazol-3-yl]methyl}(2-{[2-(3-fluorophenyl)ethyl]amino}-6-(1-methylpyrazol-4-yl)(3-pyridyl))carboxamide] | 2690 |
| NCCCn1ccc(CNC(=O)c2ccc(-c3cc[nH]n3)nc2NCCc2cccc(F)c2)n1 [N-{[1-(3-aminopropyl)pyrazol-3-yl]methyl}(2-{[2-(3-fluorophenyl)ethyl]amino}-6-pyrazol-3-yl(3-pyridyl))carboxamide] | 3760 |
| NCCCn1ccc(CNC(=O)c2ccc(-c3cn[nH]c3)nc2NCCc2cccc(F)c2)n1 [N-{[1-(3-aminopropyl)pyrazol-3-yl]methyl}(2-{[2-(3-fluorophenyl)ethyl]amino}-6-pyrazol-4-yl(3-pyridyl))carboxamide] | 1410 |
| N#Cc1ccccc1-c1ccc(C(=O)NCc2ccn(CCCN)n2)c(NCCc2cccc(F)c2)n1 [N-{[1-(3-aminopropyl)pyrazol-3-yl]methyl}(6-(2-cyanophenyl)-2-{[2-(3-fluorophenyl)ethyl]amino}(3-pyridyl))carboxamide] | 65 |

| Structure (SMILES) | IC50 [nM] |
| --- | --- |
| Cn1cc(-c2ccc(C(=O)NCc3ccnn3CCCN)c(NCCc3cccc(F)c3)n2)cn1 [N-{[1-(3-aminopropyl)pyrazol-5-yl]methyl}(2-{[2-(3-fluorophenyl)ethyl]amino}-6-(1-methylpyrazol-4-yl)(3-pyridyl))carboxamide] | 228 |
| NCCCn1nccc1CNC(=O)c1ccc(-c2cc[nH]n2)nc1NCCc1cccc(F)c1 [N-{[1-(3-aminopropyl)pyrazol-5-yl]methyl}(2-{[2-(3-fluorophenyl)ethyl]amino}-6-pyrazol-3-yl(3-pyridyl))carboxamide] | 462 |
| NCCCn1nccc1CNC(=O)c1ccc(-c2cn[nH]c2)nc1NCCc1cccc(F)c1 [N-{[1-(3-aminopropyl)pyrazol-5-yl]methyl}(2-{[2-(3-fluorophenyl)ethyl]amino}-6-pyrazol-4-yl(3-pyridyl))carboxamide] | 95 |
| N#Cc1ccccc1-c1ccc(C(=O)NCC2CCN(CCCN)C2)c(NCCc2cccc(F)c2)n1 (stereo not shown) [N-{[1-(3-aminopropyl)pyrrolidin-3-yl]methyl}(6-(2-cyanophenyl)-2-{[2-(3-fluorophenyl)ethyl]amino}(3-pyridyl))carboxamide] | 4790 |
| N#Cc1ccccc1-c1ccc(C(=O)NCC2CCN(C(=O)CCCN)CC2)c(NCCc2cccc(F)c2)n1 [N-{[1-(4-aminobutanoyl)(4-piperidyl)]methyl}(6-(2-cyanophenyl)-2-{[2-(3-fluorophenyl)ethyl]amino}(3-pyridyl))carboxamide] | 6010 |
| N#Cc1ccccc1-c1ccc(C(=O)NCC2CCCCCN2C(=O)CCCN)c(NCCc2cccc(F)c2)n1 (stereo not shown) [N-{[1-(4-aminobutanoyl)azaperhydroepin-2-yl]methyl}(6-(2-cyanophenyl)-2-{[2-(3-fluorophenyl)ethyl]amino}(3-pyridyl))carboxamide] | 383 |
| N#Cc1ccccc1-c1ccc(C(=O)NCC2CCN(C(=O)CCCN)C2)c(NCCc2cccc(F)c2)n1 (stereo not shown) [N-{[1-(4-aminobutanoyl)pyrrolidin-3-yl]methyl}(6-(2-cyanophenyl)-2-{[2-(3-fluorophenyl)ethyl]amino}(3-pyridyl))carboxamide] | 433 |
| CS(=O)(=O)N1CCCC(CNC(=O)c2ccc(-c3ccccc3)nc2NCCc2ccccn2)C1 (stereo not shown) [N-{[1-(methylsulfonyl)(3-piperidyl)]methyl}{6-phenyl-2-[(2-(2-pyridyl)ethyl)amino](3-pyridyl)}carboxamide] | 20300 |
| CC(=O)NCC1CCCCN1C(=O)c1ccc(-c2ccccc2)nc1NCCc1ccccn1 (stereo not shown) [N-{[1-({6-phenyl-2-[(2-(2-pyridyl)ethyl)amino]-3-pyridyl}carbonyl)-2-piperidyl]methyl}acetamide] | 21200 |
| N#Cc1ccccc1-c1ccc(C(=O)NCc2cccnc2CCN)c(NCCc2cccc(F)c2)n1 [N-{[2-(2-aminoethyl)(3-pyridyl)]methyl}(6-(2-cyanophenyl)-2-{[2-(3-fluorophenyl)ethyl]amino}(3-pyridyl))carboxamide] | 6 |
| Cc1cc(C(=O)NCc2cccnc2CN)c(NCCc2cccc(F)c2)nc1-c1cnn(C)c1 [N-{[2-(aminomethyl)(3-pyridyl)]methyl}(2-{[2-(3-fluorophenyl)ethyl]amino}-5-methyl-6-(1-methylpyrazol-4-yl)(3-pyridyl))carboxamide] | 129 |
| Cn1ccc(-c2ccc(C(=O)NCc3cccnc3CN)c(NCCc3cccc(F)c3)n2)n1 [N-{[2-(aminomethyl)(3-pyridyl)]methyl}(2-{[2-(3-fluorophenyl)ethyl]amino}-6-(1-methylpyrazol-3-yl)(3-pyridyl))carboxamide] | 32 |
| NCc1ncccc1CNC(=O)c1ccc(-c2cnn(CCO)c2)nc1NCCc1cccc(F)c1 [N-{[2-(aminomethyl)(3-pyridyl)]methyl}(2-{[2-(3-fluorophenyl)ethyl]amino}-6-[1-(2-hydroxyethyl)pyrazol-4-yl](3-pyridyl))carboxamide] | 707 |
| NCc1ncccc1CNC(=O)c1ccc(-c2ccccc2)nc1NCCc1cccc(F)c1 [N-{[2-(aminomethyl)(3-pyridyl)]methyl}(2-{[2-(3-fluorophenyl)ethyl]amino}-6-phenyl(3-pyridyl))carboxamide] | 8 |
| NCc1ncccc1CNC(=O)c1ccc(-c2cc[nH]n2)nc1NCCc1cccc(F)c1 [N-{[2-(aminomethyl)(3-pyridyl)]methyl}(2-{[2-(3-fluorophenyl)ethyl]amino}-6-pyrazol-3-yl(3-pyridyl))carboxamide] | 43 |
| NCc1ncccc1CNC(=O)c1ccc(-c2cn[nH]c2)nc1NCCc1cccc(F)c1 [N-{[2-(aminomethyl)(3-pyridyl)]methyl}(2-{[2-(3-fluorophenyl)ethyl]amino}-6-pyrazol-4-yl(3-pyridyl))carboxamide] | 24 |
| Cn1cc(-c2nc(NCCc3cccc(F)c3)c(C(=O)NCc3cccnc3CN)cc2Cl)cn1 [N-{[2-(aminomethyl)(3-pyridyl)]methyl}(5-chloro-2-{[2-(3-fluorophenyl)ethyl]amino}-6-(1-methylpyrazol-4-yl)(3-pyridyl))carboxamide] | 30 |
